# US9855243B2, “Topical anti-inflammatory pharmaceutical composition with zileuton cream formulation” (Qurient Co., Ltd., priority 2013, dated 2018)
# Test system: Delayed Type Hypersensitivity Reaction in mouse induced by DNFB
# Experiment: Mouse atopic dermatitis model, DNFB-induced ear inflammation
# Format: in vivo, BALB/c mouse
# Details: ear tissues after day 5 stimulation
# Experimental: According to an embodiment of the present invention, the medical effect of the cream type topical pharmaceutical composition has been verified in a Delayed Type Hypersensitivity Reaction in mouse induced by DNFB. The test article was applied to a mouse's skin 3 times a day, and then the medical effect was measured. Furthermore, an excess amount of the zileuton was injected using a non-optimized test vehicle, acetone.
# For this purpose, BALB/c mice were divided into […], each consisting of 10 mice. The groups were divided into a vehicle (acetone), positive control group (dexamethasone 0.05 mg/ear; Dex), and zileuton groups ([…]). And the zileuton groups were divided into cases where acetone (1 mg/ear) and the cream formulation of […] (0.2 mg/ear and 0.02 mg/ear) were used, respectively.
# Then, on day 5, 20 μl of 0.3% DNFB was applied once again to cause inflammation in the ears. Then, dexamethasone and zileuton dissolved in acetone vehicle were applied to the ears at 1 hour, 6 hours, and 23 hours after the stimulation on day 5. Thicknesses of the ears were measured at 24 hours after the stimulation on day 5, and then ear tissues were taken for histopathological observation.
compound,measurement,value
"CC(c1cc2ccccc2s1)N(O)C(N)=O (racemic) [Zileuton, (±)-1-(1-(benzo [b]thiophen-2-yl)ethyl)-1-hydroxyurea]","Histopathological observation, anti-inflammation function",excellent anti-inflammation function
